In this experiment the target is T1, hRpn13 (Homo sapiens, UniProt Q16186).
T1 construct: gene ADRM1; hRpn13 Pru (1–150)
In words: ITC; NMR structure; 2D NMR; LC-MS adduct; tryptophan quenching. The experiment is classed as binding. (In general: Isothermal titration calorimetry measures the heat released or taken up as one component is titrated into another.)

T1 sequence (Q16186 1-150): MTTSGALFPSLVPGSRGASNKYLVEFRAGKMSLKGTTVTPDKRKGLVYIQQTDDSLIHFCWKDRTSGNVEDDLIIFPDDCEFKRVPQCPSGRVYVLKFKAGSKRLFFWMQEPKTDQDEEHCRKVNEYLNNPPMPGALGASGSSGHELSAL

In turn, `Cc1ccc(C(=O)Nc2cccc(/C=C(\C#N)C(=O)Nc3ccccc3C(=O)O)c2)cc1` [XL5] came in with a Kd of 1480 ± 520 nM.

In general, Kd refers to a measure of binding affinity in units of concentration. Higher therefore signals a looser complex.

The record behind these values is article PMC8677766 (Nature Communications, 2021).
